Article PMC6864407 (Pharmacology Research & Perspectives, 2019)
Each block holds one compound with its values, some of them ahead of it.

Tests used:
in vivo = details: rat, topical or ocular; for half-life: t1/2, rat
Protocol: (§2) The both eyes (dosed eye and nondosed eye) were collected and washed by water, and then the eye tissues (the choroid/sclera and retina) were collected.
(§3) An aliquot of acetonitrile solution containing an internal standard was added to the plasma sample and mixed. After centrifugation, supernatant was mixed with 10 mmol/L ammonium acetate solution to prepare a sample for determination of drug concentration by liquid chromatography‐tandem mass spectrometry (LC/MS/MS). An aliquot of 50 vol% methanol was added to the eye tissues, and then homogenized by a beads shocker to prepare homogenate samples. An aliquot of the acetonitrile solution containing the internal standard was added to the homogenate samples and mixed. After centrifugation, supernatant was mixed with 10 mmol/L ammonium acetate solution to prepare samples for the determination of drug concentrations.
(§4) LC/MS/MS system consisted of ACQUITY UPLC system (Waters Corporation) and QTRAP6500 (AB SCIEX) was used for the determination of drug concentrations. The prepared samples were separated by ACQUITY UPLC peptide BEH C18 column (1.7 µm, 2.1 × 50 mm) (Waters Corporation, Milford, MA), with mobile phase A: 10 mmol/L ammonium acetate solution and mobile phase B: acetonitrile. After injection of the prepared samples to LC/MS/MS, the samples were eluted (0.2 mL/minutes) with 30% B followed 0.10 minutes isocratic period; 3.90 minutes linear gradient to 70% B; 0.01 minutes linear gradient to 30% B; and 1.49 minutes isocratic period. Multiple reaction monitoring was performed by using an atmospheric pressure chemical ionization probe, and monitor ion of regorafenib and pazopanib were 482.958/270.000 (m/z, Q1/Q3) and 438.184/356.900 (m/z, Q1/Q3), respectively.
(§5) The pharmacokinetic parameters of regorafenib and pazopanib in the eye tissues and plasma were calculated by average concentrations in the eye tissues and plasma. Maximum concentration (Cmax) and the time to reach Cmax (tmax) were obtained directly from the observed values. Log‐transformed concentrations were plotted against time. The elimination rate constant (ke) was estimated by linear least‐squares method using the last 2 or 3 observed data points. Apparent half‐life (t1/2) was obtained as ln2/ke. Area under the concentration vs time curve (AUC) from time 0 to the observed data point (AUC0‐t) was calculated using the linear trapezoidal method. AUC after the last data point was estimated by extrapolating with the ke and added up with AUC0‐t to calculate AUC from time 0 to infinity (AUC0‐∞).

laser‐induced CNV = assay: Laser‐induced monkey CNV model; details: for Change in incidence of Grade 4 lesions between Day‐1 and Day35: Fisher's exact test, Day‐1 vs Day 35; for Percentage of Grade 4 lesion: aflibercept 500 μg/eye intravitreal once, mean of 6 eyes
[1] = Pharmacokinetic study (ocular distribution) in monkeys after single ocular instillation; details: monkey, 4 h, regorafenib 17.1 mg/mL (50 μL/eye) or pazopanib 5.0 mg/mL (30 μL/eye)
Protocol: (§1) In the rabbit and monkey studies, sample preparation and determination of drug concentrations were performed in the same manner for the rat pharmacokinetic study.

[2] = tested on: choroidal neovascularization; parameters: method as in PMID 21620822; details: after ocular instillation in rats; cited from earlier work
neovascular AMD = details: eye‐drop formulations; cited from earlier work
[3] = Pharmacokinetic study in rats after single ocular instillation; details: rat; for AUC0‐t / AUC0‐∞ / AUC: single ocular instillation, 10 μL/eye; for AUC0‐t / AUC0‐∞ / AUC / Concentration: regorafenib 21.2 mg/mL or pazopanib 4.9 mg/mL; for concentration at 0.5 h: topical; for half-life / Tmax / AUC: topical or ocular; for Concentration: choroid/sclera, 0.01 mL; for choroid/sclera concentration: 0.5 hours after administration;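 on all read-outs here: drug levels in plasma and homogenized choroid/sclera and retina quantified by LC/MS/MS, parameters derived from mean concentrations, t1/2 from terminal log-linear slope, AUC via linear trapezoids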
Protocol: as §2, §3, §4, §5

[4] = tested on: VEGF‐induced fluorescein leakage; parameters: method as in PMID 23169884; details: ocular instillation in rabbits; cited from earlier work
melanin = tested on: melanin; parameters: method as in PMID 23385800; details: cited from earlier work
[5] = Pharmacokinetic study in rabbits after single ocular instillation; details: rabbit, choroid/retina, 1.5 h, regorafenib 24.1 mg/mL or pazopanib 5.0 mg/mL, 0.02 mL
Protocol: as §1

[6] = choroid/sclera of the dosed eye
[7] = in vivo, choroid/sclera of dosed eye, single ocular instillation, regorafenib 21.2 mg/mL or pazopanib 4.9 mg/mL, 10 μL/eye
[8] = in vivo, plasma, single ocular instillation, regorafenib 21.2 mg/mL or pazopanib 4.9 mg/mL, 10 μL/eye

Tmax (in vivo; [6]): 4 h | Concentration ([1]; cornea, nondosed eye): BLQ (<1) ng/g | AUC0‐t ([3]; choroid/sclera of dosed eye): 42 100 h × ng/g | AUC0‐∞ ([3]; choroid/sclera of dosed eye): 112 000 h × ng/g | concentration at 0.5 h [3, 6]: 293 ng/g | half-life [3, 6]: 245 h | concentration at 0.5 h ([3]; choroid/sclera of the nondosed eye): 11.3 ng/g | Tmax ([3]; plasma): 0.5 h | half-life ([3]; plasma): 20.1 h | AUC ([3]; plasma, AUC0‐t): 1280 ng·h/mL | AUC ([3]; plasma, AUC0‐∞): 1300 ng·h/mL | AUC0‐t ([3]; retina of dosed eye): 3450 ng·h/g | AUC0‐∞ ([3]; retina of dosed eye): 6660 ng·h/g | Tmax ([3]; retina of the dosed eye): 120 h | half-life ([3]; retina of the dosed eye, 4.9 mg/mL (10 μL/eye)): 159 h
Compound: Cc1ccc(Nc2nccc(N(C)c3ccc4c(C)n(C)nc4c3)n2)cc1S(N)(=O)=O.Cl [Pazopanib, 5‐[[4‐[(2,3‐dimethylindazol‐6‐yl)‐methylamino]pyrimidin‐2‐yl]amino]‐2‐methylbenzenesulfonamide hydrochloride]
Change in incidence of Grade 4 lesions between Day‐1 and Day35 (laser‐induced CNV): no significant difference | Effect on angiogenesis and vascular hyperpermeability [2]: reduced angiogenesis and vascular hyperpermeability | Clinical efficacy of eye‐drop formulation in neovascular AMD (neovascular AMD): lack of efficacy | Suppression of VEGF‐induced fluorescein leakage in the posterior eye tissues [4]: failed to suppress | Binding to melanin (melanin): strongly binds to melanin

Compound: Aflibercept: 40 mg/mL EYLEA Injection For Intravitreal Injection; anti‐VEGF agent, positive control
Percentage of Grade 4 lesion (laser‐induced CNV; Day 8, pazopanib eye‐drops 5.0 mg/mL four times daily): 4.2% | Percentage of Grade 4 lesion (laser‐induced CNV; Day 15, pazopanib eye‐drops 5.0 mg/mL four times daily): 4.2% | Percentage of Grade 4 lesion (laser‐induced CNV; Day 22, pazopanib eye‐drops 5.0 mg/mL four times daily): 4.2% | Percentage of Grade 4 lesion (laser‐induced CNV; Day 29, pazopanib eye‐drops 5.0 mg/mL four times daily): 4.2% | Change in incidence of Grade 4 lesions between Day‐1 and Day35 (laser‐induced CNV): significant efficacy had been maintained until Day35

Compound: CNC(=O)c1cc(Oc2ccc(NC(=O)Nc3ccc(Cl)c(C(F)(F)F)c3)c(F)c2)ccn1.O [Regorafenib, 4‐[4‐ ({[4‐Chloro‐3‐(trifluoromethyl)phenyl]carbamoyl}amino)‐3‐fluorophenoxy]‐N‐methylpyridine‐2‐carboxamide monohydrate]
AUC (in vivo; in vivo, AUC0‐t, plasma, single ocular instillation, regorafenib 21.2 mg/mL or pazopanib 4.9 mg/mL, 10 μL/eye): 1010 ng·h/mL | AUC (in vivo; in vivo, AUC0‐∞, plasma, single ocular instillation, regorafenib 21.2 mg/mL or pazopanib 4.9 mg/mL, 10 μL/eye): 1060 ng·h/mL | Cmax (in vivo; [7]): 1310 ng/g | Cmax (in vivo; [8]): 38.6 ng/mL | Cmax (in vivo; in vivo, retina of dosed eye, single ocular instillation, regorafenib 21.2 mg/mL or pazopanib 4.9 mg/mL, 10 μL/eye): 28 ng/g | half-life (in vivo; [7]): 29.7 h | half-life (in vivo; [8]): 23.9 h | Tmax (in vivo; in vivo, tmax): 0.5 h | Tmax (in vivo; in vivo, tmax, plasma, single ocular instillation, regorafenib 21.2 mg/mL or pazopanib 4.9 mg/mL, 10 μL/eye): 7 h | Tmax (in vivo; in vivo, tmax, retina of dosed eye, single ocular instillation, regorafenib 21.2 mg/mL or pazopanib 4.9 mg/mL, 10 μL/eye): 7 h | Concentration ([5]; dosed eye): BLQ (<1) ng/g | Concentration ([5]; nondosed eye): BLQ (<1) ng/g | Concentration ([1]; choroid, nondosed eye): BLQ (<3) ng/g | Concentration ([1]; cornea, dosed eye): 350 ng/g | Concentration ([1]; cornea, nondosed eye): BLQ (<3) ng/g | Concentration ([1]; iris/ciliary body, dosed eye): 49.4 ng/g | Concentration ([1]; iris/ciliary body, nondosed eye): BLQ (<3) ng/g | Concentration ([1]; retina, dosed eye): BLQ (<3) ng/g | Concentration ([1]; retina, nondosed eye): BLQ (<3) ng/g | Clinical efficacy of eye‐drop formulation in neovascular AMD (neovascular AMD): lack of efficacy | AUC0‐t ([3]; choroid/sclera of dosed eye): 15 300 h × ng/g | AUC0‐∞ ([3]; choroid/sclera of dosed eye): 16 400 h × ng/g | Concentration ([3]; dosed eye, 1.5 h): 552 ng/g | Concentration ([3]; dosed eye, 4 h): 340 ng/g | Concentration ([3]; nondosed eye, 1.5 h): 29.1 ng/g | Concentration ([3]; nondosed eye, 4 h): 72.3 ng/g | choroid/sclera concentration ([3]; dosed eye): 1310 ng/g | choroid/sclera concentration ([3]; nondosed eye): 129 ng/g | AUC0‐t ([3]; retina of dosed eye): 517 ng·h/g
